Assay results as given in ChEMBL document CHEMBL1201862, “PubChem BioAssay data set” (2004).
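Method: 48-hour compound exposure of cells in 96-well plates, five concentrations, linear interpolation of endpoints. GI50 marks 50% less growth.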 Calls of active or inactive are those of the source. No stated cut-off is given here; in the data, active = GI50 up to about 1.1 µM and inactive = higher.

Experiments:
Assay in all cases: DTP human tumour cell line panel, 48 h
[1] = tested on: UO-31
[2] = tested on: U-251
[3] = tested on: A498
[4] = tested on: NCI-H226
[5] = tested on: ACHN
[6] = tested on: TK-10
[7] = tested on: HCC 2998
[8] = tested on: RXF 393
[9] = tested on: MDA-MB-435
[10] = tested on: SF-539
[11] = tested on: A549
[12] = tested on: 786-0
[13] = tested on: UACC-62
[14] = tested on: CAKI-1
[15] = tested on: OVCAR-8
[16] = tested on: SK-MEL-5
[17] = tested on: SK-OV-3
[18] = tested on: RPMI-8226
[19] = tested on: PC-3
[20] = tested on: MDA-N

Compound: C=CC(=O)C#CC#CC/C=C\CCCCCCC
- GI50 [1]: > 20.6 µM (inactive)
- GI50 [2]: > 20.6 µM (inactive)
- GI50 [3]: > 20.6 µM (inactive)
- GI50 [4]: > 20.6 µM (inactive)
- GI50 [5]: > 20.6 µM (inactive)
- GI50 [6]: > 20.6 µM (inactive)
- GI50 [7]: > 20.6 µM (inactive)
- GI50 [8]: > 11.3 µM (inactive)
- GI50 [9]: > 20.6 µM (inactive)
- GI50 [10]: > 20.6 µM (inactive)
- GI50 [11]: > 20.6 µM (inactive)
- GI50 [12]: > 10.1 µM (inactive)
- GI50 [13]: > 20.6 µM (inactive)
- GI50 [14]: > 20.6 µM (inactive)
- GI50 [15]: > 19.8 µM (inactive)
- GI50 [16]: > 20.6 µM (inactive)
- GI50 [17]: > 20.6 µM (inactive)
- GI50 [18]: 5.6 µM (inactive)

Compound: Cn1c(-c2cccc([N+](=O)[O-])c2)[n+](C)c2ccccc21
- GI50 [1]: > 100 µM (inactive)
- GI50 [2]: > 100 µM (inactive)
- GI50 [3]: > 100 µM (inactive)
- GI50 [4]: > 100 µM (inactive)
- GI50 [5]: 41.6 µM (inactive)
- GI50 [6]: > 100 µM (inactive)
- GI50 [7]: > 100 µM (inactive)
- GI50 [8]: > 100 µM (inactive)
- GI50 [9]: > 100 µM (inactive)
- GI50 [10]: > 100 µM (inactive)
- GI50 [19]: 46.8 µM (inactive)
- GI50 [11]: 46.9 µM (inactive)
- GI50 [12]: > 100 µM (inactive)
- GI50 [13]: > 100 µM (inactive)
- GI50 [14]: > 100 µM (inactive)
- GI50 [15]: 49 µM (inactive)
- GI50 [16]: 76.7 µM (inactive)
- GI50 [17]: > 100 µM (inactive)
- GI50 [18]: > 100 µM (inactive)

Compound: O=C(Nc1ccc2[nH]c(C(=O)N3CC(CCl)c4ccc([N+](=O)[O-])cc43)cc2c1)c1cc2ccccc2o1 (stereo not given)
- GI50 [1]: > 1100 µM (inactive)
- GI50 [2]: > 1100 µM (inactive)
- GI50 [3]: > 1100 µM (inactive)
- GI50 [4]: > 1100 µM (inactive)
- GI50 [7]: > 1100 µM (inactive)
- GI50 [8]: > 1100 µM (inactive)
- GI50 [9]: > 1100 µM (inactive)
- GI50 [10]: > 1100 µM (inactive)
- GI50 [11]: 556 µM (inactive)
- GI50 [12]: > 1100 µM (inactive)
- GI50 [13]: > 1100 µM (inactive)
- GI50 [14]: > 1100 µM (inactive)
- GI50 [15]: > 1100 µM (inactive)
- GI50 [16]: > 1100 µM (inactive)
- GI50 [20]: > 1100 µM (inactive)
- GI50 [17]: > 1100 µM (inactive)
- GI50 [18]: > 1100 µM (inactive)

Compound: S=C(/N=c1\sc(Nc2ccc(Cl)cc2)nc2sc3c(c12)CCN(N1CCc2c(sc4nc(Nc5ccc(Cl)cc5)s/c(=N\C(=S)Nc5ccc(Cl)cc5)c24)C1)C3)Nc1ccc(Cl)cc1
- GI50 [1]: 62.1 µM (inactive)
- GI50 [2]: 25.1 µM (inactive)
- GI50 [4]: 78.2 µM (inactive)
- GI50 [5]: 35.1 µM (inactive)
- GI50 [6]: 44.6 µM (inactive)
- GI50 [8]: 18.9 µM (inactive)
- GI50 [10]: 17.9 µM (inactive)
- GI50 [19]: 30.3 µM (inactive)
- GI50 [11]: 55.2 µM (inactive)
- GI50 [12]: 18 µM (inactive)
- GI50 [13]: 22.4 µM (inactive)
- GI50 [15]: 43.1 µM (inactive)
- GI50 [20]: 17 µM (inactive)
- GI50 [17]: 27.7 µM (inactive)

Compound: C[n+]1c(-c2ccc(/C=N/Nc3ccnc(N/N=C/c4ccc(-c5cn6ccccc6[n+]5C)cc4)n3)cc2)cn2ccccc21
- GI50 [1]: 21.2 µM (inactive)
- GI50 [5]: 25.3 µM (inactive)
- GI50 [6]: 41.8 µM (inactive)
- GI50 [7]: > 100 µM (inactive)
- GI50 [9]: > 10 µM (inactive)
- GI50 [10]: 20 µM (inactive)
- GI50 [19]: > 100 µM (inactive)
- GI50 [11]: > 100 µM (inactive)
- GI50 [12]: 47.2 µM (inactive)
- GI50 [15]: 82.4 µM (inactive)
- GI50 [16]: 56.4 µM (inactive)
- GI50 [20]: 28.9 µM (inactive)
- GI50 [17]: > 100 µM (inactive)
- GI50 [18]: 23.5 µM (inactive)

Compound: CC(C)(Oc1ccccc1)C(=O)Sc1c(-c2ccccc2)c(=O)n(-c2ccccc2)c(=S)n1-c1ccccc1
- GI50 [1]: 65.3 µM (inactive)
- GI50 [2]: 21.6 µM (inactive)
- GI50 [3]: 80.9 µM (inactive)
- GI50 [4]: 31.1 µM (inactive)
- GI50 [5]: 33.1 µM (inactive)
- GI50 [6]: 92.5 µM (inactive)
- GI50 [7]: 46.8 µM (inactive)
- GI50 [8]: 26.4 µM (inactive)
- GI50 [9]: 20.6 µM (inactive)
- GI50 [10]: 23.8 µM (inactive)
- GI50 [11]: 43.3 µM (inactive)
- GI50 [12]: 31.2 µM (inactive)
- GI50 [13]: 80 µM (inactive)
- GI50 [14]: > 100 µM (inactive)
- GI50 [15]: 18.6 µM (inactive)
- GI50 [20]: 56.8 µM (inactive)
- GI50 [17]: 26.7 µM (inactive)

Compound: CC12CCC(C(Nc3cc(C(F)(F)F)cc(C(F)(F)F)c3)C1=O)C2(C)C (stereo not given)
- GI50 [1]: > 100 µM (inactive)
- GI50 [2]: > 100 µM (inactive)
- GI50 [3]: > 100 µM (inactive)
- GI50 [4]: > 100 µM (inactive)
- GI50 [5]: > 100 µM (inactive)
- GI50 [6]: > 100 µM (inactive)
- GI50 [7]: > 100 µM (inactive)
- GI50 [9]: > 100 µM (inactive)
- GI50 [10]: > 100 µM (inactive)
- GI50 [19]: > 100 µM (inactive)
- GI50 [11]: > 100 µM (inactive)
- GI50 [12]: > 100 µM (inactive)
- GI50 [13]: > 100 µM (inactive)
- GI50 [14]: > 100 µM (inactive)
- GI50 [15]: > 100 µM (inactive)
- GI50 [16]: > 100 µM (inactive)
- GI50 [17]: > 100 µM (inactive)
- GI50 [18]: > 100 µM (inactive)

Compound: C/C(=N\O)c1ccc2cc(Br)c3ccccc3c2c1
- GI50 [1]: 15.7 µM (inactive)
- GI50 [2]: 14.6 µM (inactive)
- GI50 [3]: 17.7 µM (inactive)
- GI50 [5]: 23.6 µM (inactive)
- GI50 [6]: 20.3 µM (inactive)
- GI50 [7]: 14.6 µM (inactive)
- GI50 [8]: 14.8 µM (inactive)
- GI50 [9]: 24.2 µM (inactive)
- GI50 [11]: 37 µM (inactive)
- GI50 [12]: 15.1 µM (inactive)
- GI50 [13]: 17.7 µM (inactive)
- GI50 [14]: 25.1 µM (inactive)
- GI50 [15]: 24.8 µM (inactive)
- GI50 [16]: 16.8 µM (inactive)
- GI50 [20]: 15.7 µM (inactive)
- GI50 [17]: 32.3 µM (inactive)
- GI50 [18]: 17 µM (inactive)

Compound: CN(Cc1cnc2nc(N)nc(N)c2n1)c1ccc(C(=O)N[C@@H](CCS(=O)(=O)O)C(=O)O)cc1
- GI50 [1]: 0.698 µM (active)
- GI50 [2]: > 100 µM (inactive)
- GI50 [4]: 51.5 µM (inactive)
- GI50 [5]: 0.225 µM (active)
- GI50 [7]: 0.61 µM (active)
- GI50 [8]: 0.0611 µM (active)
- GI50 [10]: 0.614 µM (active)
- GI50 [19]: 0.0459 µM (active)
- GI50 [11]: 0.182 µM (active)
- GI50 [12]: 0.0583 µM (active)
- GI50 [13]: 0.248 µM (active)
- GI50 [14]: > 100 µM (inactive)
- GI50 [15]: 21.8 µM (inactive)
- GI50 [16]: 0.541 µM (active)
- GI50 [20]: 0.057 µM (active)

Compound: CSc1c(C#N)c(O)n(-c2ccc(C)cc2)c(=O)c1C(C)=O
- GI50 [1]: 88.7 µM (inactive)
- GI50 [2]: > 100 µM (inactive)
- GI50 [3]: 51.5 µM (inactive)
- GI50 [4]: > 100 µM (inactive)
- GI50 [6]: > 100 µM (inactive)
- GI50 [7]: > 100 µM (inactive)
- GI50 [8]: > 100 µM (inactive)
- GI50 [9]: > 100 µM (inactive)
- GI50 [10]: > 100 µM (inactive)
- GI50 [19]: > 100 µM (inactive)
- GI50 [11]: > 100 µM (inactive)
- GI50 [12]: > 100 µM (inactive)
- GI50 [13]: > 100 µM (inactive)
- GI50 [14]: > 100 µM (inactive)
- GI50 [15]: > 100 µM (inactive)
- GI50 [16]: > 100 µM (inactive)
- GI50 [17]: > 100 µM (inactive)
- GI50 [18]: > 100 µM (inactive)

Compound: COc1ccc(/N=N/C(=N/NC(=O)c2cc(Cl)ccc2C(=O)c2ccccc2)c2ccc(N(CCC#N)CCC#N)cc2C)cc1
- GI50 [1]: 20.3 µM (inactive)
- GI50 [2]: 16.4 µM (inactive)
- GI50 [4]: 16.2 µM (inactive)
- GI50 [5]: 25.6 µM (inactive)
- GI50 [6]: 18.2 µM (inactive)
- GI50 [7]: 18.9 µM (inactive)
- GI50 [8]: 3.8 µM (inactive)
- GI50 [9]: 27.6 µM (inactive)
- GI50 [19]: 11.4 µM (inactive)
- GI50 [11]: 18.8 µM (inactive)
- GI50 [12]: 18.5 µM (inactive)
- GI50 [13]: 17.2 µM (inactive)
- GI50 [14]: 21.3 µM (inactive)
- GI50 [15]: 16.1 µM (inactive)
- GI50 [16]: 15.5 µM (inactive)
- GI50 [20]: 21.7 µM (inactive)
- GI50 [17]: 24.4 µM (inactive)
- GI50 [18]: 9.35 µM (inactive)

Compound: O=C1C(Cl)=C(N2CCSCC2)C(=O)c2c(O)ccc(O)c21
- GI50 [1]: 0.569 µM (active)
- GI50 [4]: 0.347 µM (active)
- GI50 [5]: 0.424 µM (active)
- GI50 [6]: 0.465 µM (active)
- GI50 [8]: 0.243 µM (active)
- GI50 [9]: 0.631 µM (active)
- GI50 [19]: 0.1 µM (active)
- GI50 [11]: 0.469 µM (active)
- GI50 [12]: 0.1 µM (active)
- GI50 [13]: 0.525 µM (active)
- GI50 [14]: 0.528 µM (active)
- GI50 [16]: 0.451 µM (active)
- GI50 [20]: 0.33 µM (active)
- GI50 [17]: 0.581 µM (active)
- GI50 [18]: 0.1 µM (active)
